Tested on: MV-4-11 cells
Test: Gene expression microarray analysis (Affymetrix PrimeView) and GSEA
Type: cell-based, human
Set-up: RFU PODN (11730768_x_at) / Fold change /veh PODN (11730768_x_at) / RFU LINC00158 (11744669_a_at) / Fold change /veh LINC00158 (11744669_a_at) / RFU DUSP10 (11751237_a_at) / Fold change /veh DUSP10 (11751237_a_at) / RFU ID3 (11757404_x_at) / Fold change /veh ID3 (11757404_x_at) / RFU PLEKHG5 (11737974_s_at) / Fold change /veh PLEKHG5 (11737974_s_at) / RFU LRRC4B (11730491_at) / Fold change /veh LRRC4B (11730491_at) / RFU GIMAP4 (11747438_a_at) / Fold change /veh GIMAP4 (11747438_a_at) / RFU KRT8 (11758183_x_at) / Fold change /veh KRT8 (11758183_x_at) / RFU CNN1 (11734310_a_at) / Fold change /veh CNN1 (11734310_a_at) / RFU VPS37D (11726825_at) / Fold change /veh VPS37D (11726825_at) / RFU C10orf10 (11716522_x_at) / Fold change /veh C10orf10 (11716522_x_at) / RFU KIR2DL2 /// KIR2DL4 /// KIR2DL5A /// KIR2DL5B /// KIR2DS1 /// KIR2DS2 /// KIR2DS3 /// KIR2DS4 /// KIR3DL3 /// KIR3DL3 /// KIR3DS1 (11738374_at) / Fold change /veh KIR2DL2 /// KIR2DL4 /// KIR2DL5A /// KIR2DL5B /// KIR2DS1 /// KIR2DS2 /// KIR2DS3 /// KIR2DS4 /// KIR3DL3 /// KIR3DL3 /// KIR3DS1 (11738374_at) / RFU C1QL1 (11718748_at) / Fold change /veh C1QL1 (11718748_at) / RFU TMPRSS4 (11747572_a_at) / Fold change /veh TMPRSS4 (11747572_a_at) / RFU HAMP (11756126_x_at) / Fold change /veh HAMP (11756126_x_at) / RFU RNFT2 (11725882_a_at) / Fold change /veh RNFT2 (11725882_a_at) / RFU NR4A2 (11747474_a_at) / Fold change /veh NR4A2 (11747474_a_at) / RFU ABCC12 (11746883_a_at) / Fold change /veh ABCC12 (11746883_a_at) / RFU TMEM136 (11760407_x_at) / Fold change /veh TMEM136 (11760407_x_at) / RFU CLDN22 /// WWC2 (11732394_at) / Fold change /veh CLDN22 /// WWC2 (11732394_at) / RFU HLA-DPB1 (11760878_x_at) / Fold change /veh HLA-DPB1 (11760878_x_at) / RFU SPINT1 (11716480_a_at) / Fold change /veh SPINT1 (11716480_a_at) / RFU GAP43 (11754022_s_at) / Fold change /veh GAP43 (11754022_s_at) / RFU A4GNT (11735810_at) / Fold change /veh A4GNT (11735810_at) / RFU PRB3 (11715151_x_at) / Fold change /veh PRB3 (11715151_x_at) / RFU TUBB4B (11761932_at) / Fold change /veh TUBB4B (11761932_at) / RFU CAPN14 (11732068_a_at) / Fold change /veh CAPN14 (11732068_a_at) / RFU TMCC2 (11721928_a_at) / Fold change /veh TMCC2 (11721928_a_at) / RFU IRGQ (11745062_a_at) / Fold change /veh IRGQ (11745062_a_at) / RFU FAM174B (11720279_a_at) / Fold change /veh FAM174B (11720279_a_at) / RFU TMPRSS4 (11748680_a_at) / Fold change /veh TMPRSS4 (11748680_a_at) / RFU FAM212B (11763350_a_at) / Fold change /veh FAM212B (11763350_a_at) / RFU PLEKHG5 (11743358_a_at) / Fold change /veh PLEKHG5 (11743358_a_at) / RFU ZSCAN30 (11745921_a_at) / Fold change /veh ZSCAN30 (11745921_a_at) / RFU CMKLR1 (11741424_a_at) / Fold change /veh CMKLR1 (11741424_a_at) / RFU LOC101060620 /// MAPK8IP1 (11723275_at) / Fold change /veh LOC101060620 /// MAPK8IP1 (11723275_at) / RFU SPTSSB (11747773_x_at) / Fold change /veh SPTSSB (11747773_x_at) / RFU PRSS12 (11739890_at) / Fold change /veh PRSS12 (11739890_at) / RFU BIN1 (11741810_x_at) / Fold change /veh BIN1 (11741810_x_at) / RFU WNT11 (11732464_a_at) / Fold change /veh WNT11 (11732464_a_at) / RFU C10orf10 (11716521_a_at) / Fold change /veh C10orf10 (11716521_a_at) / RFU C5orf56 (11738089_at) / Fold change /veh C5orf56 (11738089_at) / RFU CYB561 (11721691_x_at) / Fold change /veh CYB561 (11721691_x_at) / RFU ANKRD19P (11752326_a_at) / Fold change /veh ANKRD19P (11752326_a_at) / RFU OR2T12 /// OR2T33 /// OR2T8 (11738714_s_at) / Fold change /veh OR2T12 /// OR2T33 /// OR2T8 (11738714_s_at) / RFU VCAN (11748164_a_at) / Fold change /veh VCAN (11748164_a_at) / RFU JSRP1 (11732532_at) / Fold change /veh JSRP1 (11732532_at) / RFU KRTAP10-11 (11738290_x_at) / Fold change /veh KRTAP10-11 (11738290_x_at) / RFU MYO3A (11730013_a_at) / Fold change /veh MYO3A (11730013_a_at) / RFU EBF3 (11725865_a_at) / Fold change /veh EBF3 (11725865_a_at) / RFU CAMK2N1 (11719241_x_at) / Fold change /veh CAMK2N1 (11719241_x_at) / RFU C5orf56 (11738088_a_at) / Fold change /veh C5orf56 (11738088_a_at) / RFU OLFML3 (11715873_a_at) / Fold change /veh OLFML3 (11715873_a_at) / RFU LOC100653217 /// NTM (11731650_a_at) / Fold change /veh LOC100653217 /// NTM (11731650_a_at) / RFU MAPK11 (11762145_a_at) / Fold change /veh MAPK11 (11762145_a_at) / RFU FIZ1 (11724087_x_at) / Fold change /veh FIZ1 (11724087_x_at) / RFU OASL (11726364_x_at) / Fold change /veh OASL (11726364_x_at) / RFU SOX15 (11748057_x_at) / Fold change /veh SOX15 (11748057_x_at) / RFU CD79A (11719716_a_at) / Fold change /veh CD79A (11719716_a_at) / RFU HIST1H1D (11736915_at) / Fold change /veh HIST1H1D (11736915_at) / RFU CASKIN2 (11723855_a_at) / Fold change /veh CASKIN2 (11723855_a_at) / RFU LOC730098 (11760151_x_at) / Fold change /veh LOC730098 (11760151_x_at) / RFU OR4N2 (11742367_at) / Fold change /veh OR4N2 (11742367_at) / RFU PRRT2 (11749266_a_at) / Fold change /veh PRRT2 (11749266_a_at) / RFU SNX32 (11753110_a_at) / Fold change /veh SNX32 (11753110_a_at) / RFU CDHR5 (11726645_a_at) / Fold change /veh CDHR5 (11726645_a_at) / RFU RCAN1 (11760418_a_at) / Fold change /veh RCAN1 (11760418_a_at) / RFU FAM167A (11723789_a_at) / Fold change /veh FAM167A (11723789_a_at) / RFU FAM26E (11764081_at) / Fold change /veh FAM26E (11764081_at) / RFU ISYNA1 (11749810_s_at) / Fold change /veh ISYNA1 (11749810_s_at) / RFU ACY1 (11761880_at) / Fold change /veh ACY1 (11761880_at) / RFU 11764098_at / Fold change /veh 11764098_at / RFU SAMD14 (11745864_x_at) / Fold change /veh SAMD14 (11745864_x_at) / RFU NPB (11741838_a_at) / Fold change /veh NPB (11741838_a_at) / RFU TMPRSS6 (11731388_a_at) / Fold change /veh TMPRSS6 (11731388_a_at) / RFU KRTAP10-2 (11738614_at) / Fold change /veh KRTAP10-2 (11738614_at) / RFU ARHGAP8 /// PRR5-ARHGAP8 (11727945_x_at) / Fold change /veh ARHGAP8 /// PRR5-ARHGAP8 (11727945_x_at) / RFU KRTAP5-7 /// NADSYN1 (11734609_at) / Fold change /veh KRTAP5-7 /// NADSYN1 (11734609_at) / RFU RASL12 (11751679_a_at) / Fold change /veh RASL12 (11751679_a_at) / RFU CDKN2B (11736163_a_at) / Fold change /veh CDKN2B (11736163_a_at) / RFU PRF1 (11729649_at) / Fold change /veh PRF1 (11729649_at) / RFU, ZNF638 /// ZNF638-IT1 / Fold change vs veh, ZNF638 /// ZNF638-IT1 / RFU, PANK3 / Fold change vs veh, PANK3 / RFU, SH3YL1 / Fold change vs veh, SH3YL1 / RFU, ZEB2 / Fold change vs veh, ZEB2 / RFU, NRIP1 / Fold change vs veh, NRIP1 / RFU, PTTG1IP / Fold change vs veh, PTTG1IP / RFU, CAPN2 / Fold change vs veh, CAPN2 / RFU, MED14 / Fold change vs veh, MED14 / RFU, SNORA58 / Fold change vs veh, SNORA58 / RFU, C1orf63 / Fold change vs veh, C1orf63 / RFU, LRRFIP1 / Fold change vs veh, LRRFIP1 / RFU, NDUFAF7 / Fold change vs veh, NDUFAF7 / RFU, SLC12A2 / Fold change vs veh, SLC12A2 / RFU, IBTK / Fold change vs veh, IBTK / RFU, ESF1 / Fold change vs veh, ESF1 / Fold change vs veh, TMEM50B / RFU, TAOK1 / Fold change vs veh, TAOK1 / RFU, ACBD3 / Fold change vs veh, ACBD3 / RFU, TMA16 / Fold change vs veh, TMA16 / RFU, RWDD3 / Fold change vs veh, RWDD3 / RFU, BCAT1 / Fold change vs veh, BCAT1 / RFU, EDEM3 / Fold change vs veh, EDEM3 / RFU, TMEM33 / Fold change vs veh, TMEM33 / RFU, WDR75 / Fold change vs veh, WDR75 / RFU, AHCTF1 / Fold change vs veh, AHCTF1 / RFU, TFRC / Fold change vs veh, TFRC / RFU, ZDHHC17 / Fold change vs veh, ZDHHC17 / RFU, NOM1 / Fold change vs veh, NOM1 / RFU, ARL8B / Fold change vs veh, ARL8B / RFU, ZBTB11 / Fold change vs veh, ZBTB11 / RFU, TAMM41 / Fold change vs veh, TAMM41 / RFU, KIAA1704 /// LOC100996395 / Fold change vs veh, KIAA1704 /// LOC100996395 / RFU, ING1 / Fold change vs veh, ING1 / RFU, TRMT61B / Fold change vs veh, TRMT61B / RFU, FUBP3 / Fold change vs veh, FUBP3 / RFU, TP53 / Fold change vs veh, TP53 / RFU, TNKS2 / Fold change vs veh, TNKS2 / RFU, ZFP14 / Fold change vs veh, ZFP14 / RFU, ACTR2 / Fold change vs veh, ACTR2 / RFU, PPP3R1 / Fold change vs veh, PPP3R1 / RFU, PIK3R1 / Fold change vs veh, PIK3R1 / RFU, HNRNPA1 / Fold change vs veh, HNRNPA1 / RFU, RNF170 / Fold change vs veh, RNF170 / RFU, ZNF28 / Fold change vs veh, ZNF28 / RFU, RNGTT / Fold change vs veh, RNGTT / RFU, OGT / Fold change vs veh, OGT / RFU, BRD1 / Fold change vs veh, BRD1 / RFU, MARS / Fold change vs veh, MARS / RFU, ZNF655 / Fold change vs veh, ZNF655 / RFU, FAHD1 / Fold change vs veh, FAHD1 / RFU, BDP1 / Fold change vs veh, BDP1 / RFU, LRRCC1 / Fold change vs veh, LRRCC1 / RFU, ARID1A / Fold change vs veh, ARID1A / RFU, ZNF146 / Fold change vs veh, ZNF146 / RFU, ZNF330 / Fold change vs veh, ZNF330 / RFU, GPN3 / Fold change vs veh, GPN3 / RFU, C9orf123 / Fold change vs veh, C9orf123 / RFU, N4BP2L2 / Fold change vs veh, N4BP2L2 / RFU, ARFIP1 / Fold change vs veh, ARFIP1 / RFU, FAM179B / Fold change vs veh, FAM179B / RFU, BCL10 / Fold change vs veh, BCL10 / RFU, UHRF1BP1L / Fold change vs veh, UHRF1BP1L / RFU, BET1 / Fold change vs veh, BET1 / RFU, CNOT2 / Fold change vs veh, CNOT2 / RFU, ZNF268 / Fold change vs veh, ZNF268 / Fold change vs veh, ZNF507 / RFU, DGCR2 / Fold change vs veh, DGCR2 / RFU, WDSUB1 / Fold change vs veh, WDSUB1 / Fold change vs veh, HSP90B1 /// MIR3652 / RFU, ADSS / Fold change vs veh, ADSS / RFU, GK / Fold change vs veh, GK / RFU, ZNF148 / Fold change vs veh, ZNF148 / RFU, TAF9 / Fold change vs veh, TAF9 / RFU, SLC1A5 / Fold change vs veh, SLC1A5 / RFU, SLMO2 / Fold change vs veh, SLMO2 / RFU, ABCC4 / Fold change vs veh, ABCC4 / RFU, LOC101060439 /// RAP1B / Fold change vs veh, LOC101060439 /// RAP1B / RFU, RFX7 / Fold change vs veh, RFX7 / RFU, GTPBP10 / Fold change vs veh, GTPBP10 / RFU, CNEP1R1 / Fold change vs veh, CNEP1R1 / RFU, BIVM-ERCC5 /// ERCC5 / Fold change vs veh, BIVM-ERCC5 /// ERCC5 / RFU, ILF3 / Fold change vs veh, ILF3 / RFU 11762660_at / Fold change /veh 11762660_at / RFU VCAN (11757783_s_at) / Fold change /veh VCAN (11757783_s_at) / RFU DDX43 (11728927_at) / Fold change /veh DDX43 (11728927_at) / RFU KRT8 (11758188_x_at) / Fold change /veh KRT8 (11758188_x_at) / RFU NKD1 (11759106_at) / Fold change /veh NKD1 (11759106_at) / RFU SRD5A1 (11742802_a_at) / Fold change /veh SRD5A1 (11742802_a_at) / RFU TPSAB1 /// TPSB2 (11721975_s_at) / Fold change /veh TPSAB1 /// TPSB2 (11721975_s_at) / RFU GSTM3 (11746129_a_at) / Fold change /veh GSTM3 (11746129_a_at) / RFU IL23R (11737362_x_at) / Fold change /veh IL23R (11737362_x_at) / RFU TMEM51 (11727254_a_at) / Fold change /veh TMEM51 (11727254_a_at) / RFU PIWIL2 (11732686_x_at) / Fold change /veh PIWIL2 (11732686_x_at) / RFU ORM1 (11744905_x_at) / Fold change /veh ORM1 (11744905_x_at) / RFU CCDC152 (11743942_at) / Fold change /veh CCDC152 (11743942_at) / RFU ECM1 (11717891_a_at) / Fold change /veh ECM1 (11717891_a_at) / RFU IL23R (11748794_a_at) / Fold change /veh IL23R (11748794_a_at) / RFU TNFAIP8L3 (11732012_x_at) / Fold change /veh TNFAIP8L3 (11732012_x_at) / RFU MBOAT4 (11741988_at) / Fold change /veh MBOAT4 (11741988_at) / RFU 11764193_at / Fold change /veh 11764193_at / RFU TMEM53 (11763286_at) / Fold change /veh TMEM53 (11763286_at) / RFU MAGEB2 (11727129_at) / Fold change /veh MAGEB2 (11727129_at) / RFU TMEM200A (11744735_a_at) / Fold change /veh TMEM200A (11744735_a_at) / RFU CCDC152 (11751479_a_at) / Fold change /veh CCDC152 (11751479_a_at) / RFU FAM211A (11726209_a_at) / Fold change /veh FAM211A (11726209_a_at) / RFU RGS16 (11746705_a_at) / Fold change /veh RGS16 (11746705_a_at) / RFU VCAN (11755009_s_at) / Fold change /veh VCAN (11755009_s_at) / RFU RHOB (11743442_s_at) / Fold change /veh RHOB (11743442_s_at) / RFU RGS16 (11720943_a_at) / Fold change /veh RGS16 (11720943_a_at) / RFU RGS16 (11720944_at) / Fold change /veh RGS16 (11720944_at) / RFU, VPS4B / Fold change vs veh, VPS4B / RFU, CREB1 / Fold change vs veh, CREB1 / RFU, DNAJC13 / Fold change vs veh, DNAJC13 / RFU, GNAQ / Fold change vs veh, GNAQ / RFU, CDK5R1 / Fold change vs veh, CDK5R1 / RFU, ZRANB3 / Fold change vs veh, ZRANB3 / RFU, CUL4A / Fold change vs veh, CUL4A / RFU, CCNY / Fold change vs veh, CCNY / RFU, UFL1 / Fold change vs veh, UFL1 / RFU, COG3 / Fold change vs veh, COG3 / RFU, DIAPH2 / Fold change vs veh, DIAPH2 / RFU, SKA2 / Fold change vs veh, SKA2 / RFU, AFF3 / Fold change vs veh, AFF3 / RFU, LMF1 / Fold change vs veh, LMF1 / RFU, IPO11 / Fold change vs veh, IPO11 / RFU, DFFB / Fold change vs veh, DFFB / RFU, FOXP1 / Fold change vs veh, FOXP1 / RFU, CARD8 / Fold change vs veh, CARD8 / RFU, STRN3 / Fold change vs veh, STRN3 / RFU, ADK / Fold change vs veh, ADK / RFU, RASSF2 / Fold change vs veh, RASSF2 / RFU, WIPF1 / Fold change vs veh, WIPF1 / RFU, LARP1B / Fold change vs veh, LARP1B / RFU, RASA1 / Fold change vs veh, RASA1 / RFU, RB1 / Fold change vs veh, RB1 / RFU, PPFIA1 / Fold change vs veh, PPFIA1 / RFU, MAT2A / Fold change vs veh, MAT2A / RFU, CCT5 / Fold change vs veh, CCT5 / RFU, WDR92 / Fold change vs veh, WDR92 / RFU, CUX1 / Fold change vs veh, CUX1 / RFU, TTC7A / Fold change vs veh, TTC7A / RFU, TMEM135 / Fold change vs veh, TMEM135 / RFU, DEPTOR / Fold change vs veh, DEPTOR / RFU, CPM / Fold change vs veh, CPM / RFU, DNAJB6 / Fold change vs veh, DNAJB6 / RFU, CACNA2D3 / Fold change vs veh, CACNA2D3 / RFU, DTX4 / Fold change vs veh, DTX4 / RFU, TFCP2 / Fold change vs veh, TFCP2 / RFU, GMCL1 /// GMCL1P1 / Fold change vs veh, GMCL1 /// GMCL1P1 / RFU, AEBP2 / Fold change vs veh, AEBP2 / RFU, SNHG1 /// SNORD22 /// SNORD25 /// SNORD26 /// SNORD27 /// SNORD28 /// SNORD29 /// SNORD31 / Fold change vs veh, SNHG1 /// SNORD22 /// SNORD25 /// SNORD26 /// SNORD27 /// SNORD28 /// SNORD29 /// SNORD31 / Fold change (Aza/veh), C12orf56 (ProbeSet 11735607_a_at) / Fold change (ACY-1035/veh), C12orf56 (ProbeSet 11735607_a_at) / Fold change (Aza/veh), FGFR1OP (ProbeSet 11751329_s_at) / Fold change (ACY-1035/veh), FGFR1OP (ProbeSet 11751329_s_at) / Fold change (Aza/veh), VPS36 (ProbeSet 11739960_a_at) / Fold change (ACY-1035/veh), VPS36 (ProbeSet 11739960_a_at) / RFU SYPL1 (11715823_x_at) / Fold change /veh SYPL1 (11715823_x_at) / RFU IGFBP7 (11715501_s_at) / Fold change /veh IGFBP7 (11715501_s_at) / RFU REEP3 (11722064_at) / Fold change /veh REEP3 (11722064_at) / RFU IGLL1 (11728026_x_at) / Fold change /veh IGLL1 (11728026_x_at): dose or concentration left out as unconfirmed
Conditions: MV-4-11 cells, 48 hours

Nc1ccc(-c2cccs2)cc1NC(=O)c1ccc2c(c1)cc(C1CC1)n2CCN1CCOCC1 [ACY-1035]
Fold change /veh ABCC12 (11746883_a_at): 1.17
